Assay results published in patent publication US20080312164A1 (priority 2006, published 2008).

How the values were obtained:
[1] = tested on: Du145 cells; assay: Calcein AM cytotoxicity assay, Du145; format: cell-based; details: Homo sapiens, DU-145; Du145, Calcein AM, 72 h; read-out: IC50
Excerpt: (§1) Five serial 1:2 dilutions were made with anhydrous DMSO at 100× the final concentration used in the assay.

[2] = tested on: Du145 cells; assay: Cell Titer-Glo cytotoxicity assay, Du145; format: cell-based; details: Homo sapiens, DU-145; Du145, Cell Titer-Glo, 72 h; read-out: IC50
Excerpt: as §1

[3] = tested on: HCT-116 cells; assay: Calcein AM cytotoxicity assay, HCT-116; format: cell-based; details: Homo sapiens; HCT-116, Calcein AM, 72 h; read-out: IC50
Excerpt: as §1

[4] = tested on: HCT-116 cells; assay: Cell Titer-Glo cytotoxicity assay, HCT-116; format: cell-based; details: Homo sapiens; HCT-116, Cell Titer-Glo, 72 h; read-out: IC50
Excerpt: as §1

[5] = tested on: Hep3B cells; assay: Calcein AM cytotoxicity assay, Hep3B; format: cell-based; details: Homo sapiens, Calcein AM, 72 h, read-out: IC50
Excerpt: as §1

[6] = tested on: Hep3B cells; assay: Cell Titer-Glo cytotoxicity assay, Hep3B; format: cell-based; details: Homo sapiens, Cell Titer-Glo, 72 h, read-out: IC50
Excerpt: as §1

[7] = tested on: SF-268 cells; assay: Calcein AM cytotoxicity assay, SF-268; format: cell-based; details: Homo sapiens; SF-268, Calcein AM, 72 h; read-out: IC50
Excerpt: as §1

[8] = tested on: SF-268 cells; assay: Cell Titer-Glo cytotoxicity assay, SF-268; format: cell-based; details: Homo sapiens; SF-268, Cell Titer-Glo, 72 h; read-out: IC50
Excerpt: as §1

[9] = tested on: SK-OV-3 cells; assay: Calcein AM cytotoxicity assay, SK-OV-3; format: cell-based; details: Homo sapiens; SK-OV-3, Calcein AM, 72 h; read-out: IC50
Excerpt: as §1

[10] = tested on: SK-OV-3 cells; assay: Cell Titer-Glo cytotoxicity assay, SK-OV-3; format: cell-based; details: Homo sapiens; SK-OV-3, Cell Titer-Glo, 72 h; read-out: IC50
Excerpt: as §1

[11] = tested on: NCI/ADR RES cells; assay: Calcein AM cytotoxicity assay, NCI/ADR-RES; format: cell-based; details: Homo sapiens, Calcein AM, 72 h, read-out: IC50
Excerpt: as §1

[12] = tested on: NCI/ADR RES cells; assay: Cell Titer-Glo cytotoxicity assay, NCI/ADR-RES; format: cell-based, human; details: Homo sapiens; NCI/ADR-RES, Cell Titer-Glo, 72 h; read-out: IC50
Excerpt: as §1

[13] = tested on: NCI-H460 cells; assay: Calcein AM cytotoxicity assay, NCI-H460; format: cell-based; details: Homo sapiens; NCI-H460, Calcein AM, 72 h; read-out: IC50
Excerpt: as §1

[14] = tested on: NCI-H460 cells; assay: Cell Titer-Glo cytotoxicity assay, NCI-H460; format: cell-based, human; details: Homo sapiens; NCI-H460, Cell Titer-Glo, 72 h; read-out: IC50
Excerpt: as §1

[15] = tested on: MCF7 cells; assay: Calcein AM cytotoxicity assay, MCF7; format: cell-based; details: Homo sapiens; MCF7, Calcein AM, 72 h; read-out: IC50
Excerpt: as §1

[16] = tested on: MCF7 cells; assay: Cell Titer-Glo cytotoxicity assay, MCF7; format: cell-based, human; details: Homo sapiens; MCF7, Cell Titer-Glo, 72 h; read-out: IC50
Excerpt: as §1

[17] = tested on: NmuMG mouse mammary normal epithelial cells; assay: Calcein AM cytotoxicity assay, NmuMG; format: cell-based; details: Epithelial cell, NmuMG, Calcein AM, 72 h, read-out: IC50
Excerpt: as §1

[18] = tested on: NmuMG mouse mammary normal epithelial cells; assay: Cell Titer-Glo cytotoxicity assay, NmuMG; format: cell-based; details: Mus musculus, Epithelial cell; NmuMG, Cell Titer-Glo, 72 h; read-out: IC50
Excerpt: as §1

[19] = tested on: HT-29 cells; assay: MTT cytotoxicity assay, HT-29; format: cell-based; details: Homo sapiens; HT-29, MTT, 24 h; read-out: IC50
Excerpt: The IC50 value for each library member represents at least twelve replicates of dose-response experiments conducted over five concentrations. […] In this assay, live cells were distinguished by the intracellular enzymatic activity that converts the cell-permeable molecule MTT to strongly colored formazan crystals, which are retained within live cells and absorb light at 570 nm.
MTT Cytotoxicity Assay. HT-29 cell lines were maintained in RPMI medium 1640 supplemented with 10% (wt/vol) FBS and 1% penicillin-streptomycin (PS) (100 units/mL and 100 μg/mL). Cells were harvested by trypsinization using 0.25% trypsin and 0.1% EDTA and plated at a density of 2,000-5,000 cells per well of each 96-well microtiter plate. Cells were grown for 24 h at 37° C., with 5% CO2/95% air in a humidified incubator to allow cell attachment to occur before compound addition. Library members were stored at −20° C. under desiccating conditions before the assay. Library member stocks (1000×) were prepared in falcon tubes (BD Biosciences). Five dilutions were made with DMSO at 1000× the final concentration used in the assay. The 1000× stocks (3 μL) were diluted with complete culture medium (3 mL). Each plate contained twelve replicates of cells treated with 0.1% DMSO in complete cell culture medium that served as an individual negative control. Library member stocks (1×, 200 μL) were added to aspirated cells and replicated twelve times on each plate. Cells were incubated with the library members for 24 h before optical density reading. Test plates were removed from the incubator and washed once in sterile PBS to remove serum containing library members. Freshly-made 10×MTT solution in sterile PBS (5 mg/mL) was diluted 1:10 in serum-free culture medium and was sterilized using a 0.2 μm filter. Diluted MTT solution (1×, 50 μL) was added to each well and the plates were incubated in the dark for 2 h. Test plates were centrifuged at 1800×g for 5 min at 4° C. using a Beckman GPR centrifuge. MTT solution was removed by aspiration and 100 μL DMSO was added to each well to lyse cells and solubilize formazan crystals. Test plates were incubated in the dark at room temperature for 10 min. Plates were read for optical density at 570 nm.
IC50 Calculations. For each library member, at least three dose-response experiments were conducted on separate plates. […] To calculate IC50, percent inhibitions were plotted as a function of log[concentration] and then fit to a four-parameter logistic model that allowed for a variable Hill slope by using XLFIT 4.1 (ID Business Solutions, Emeryville, Calif.).

[20] = tested on: human cancer cell lines; assay: Cytotoxicity across the panel of human cancer cell lines (average, high-throughput assays); format: cell-based; details: for IC50: average across eight human cancer cell lines, MTT (HT-29) values excluded, read-out: Cancerous Average IC50 / Average IC50 in Cancer Cell Lines; for further fold increase in potency from multiple phenyl rings: average IC50 compared with single-ring 23 and 38
Excerpt: as §1

Row | SMILES | IC50 [1] [µM] | IC50 [2] [µM] | IC50 [3] [µM] | IC50 [4] [µM] | IC50 [5] [µM] | IC50 [6] [µM] | IC50 [7] [µM] | IC50 [8] [µM] | IC50 [9] [µM] | IC50 [10] [µM] | IC50 [11] [µM] | IC50 [12] [µM] | IC50 [13] [µM] | IC50 [14] [µM] | IC50 [15] [µM] | IC50 [16] [µM] | IC50 [17] [µM] | IC50 [18] [µM] | IC50 [19] [µM] | IC50 [20] [µM] | further results
1 | S=C=N[C@H]1CCCc2ccccc21 [Compound 31, (S)-1-isothiocyanato-1,2,3,4-tetrahydronaphthalene] | 12.4 | 17.4 | 33 | 12.2 | 13.1 | 20.1 ± 0.53 | 8.51 | 10.5 | > 30 | 12.7 | 25.1 | 30.9 | 25.4 | 31.6 | 14.5 | 14.4 | 18.6 | 15.4 | > 50 | 17.2 | –
2 | S=C=NCc1cccc(-c2ccccc2)c1 [Compound 34, 1-(isothiocyanatomethyl)-3-phenylbenzene] | 7.11 | 3.87 | 2.93 | 3.33 | 6.9 | 2.11 | 3.95 | 3.39 | 4.92 | 3.83 | 1.47 | 2.23 | 3.53 | 5.29 | 2.52 | 2.13 | 5.95 | 3.06 | 28.8 | 3.27 | selectivity for cancer cells over NmuMG cells ([20]; IC50 in NmuMG versus average IC50 in cancer cell lines): non-selective; further fold increase in potency from multiple phenyl rings [20]: ~2 fold
3 | S=C=NCc1ccc(-c2ccccc2)cc1 [Compound 35, 1-(isothiocyanatomethyl)-4-phenylbenzene] | 5.49 | 11 | 7.54 | 4.83 | 4.33 | 4.51 | 6.26 | 4.4 | < 3.13 | 4.65 | 6.73 | 12.1 | 10.5 | 15 | 2.91 | 6.72 | < 12.5 | 65.7 | > 50 | 7.89 | further fold increase in potency from multiple phenyl rings [20]: ~2 fold
4 | S=C=NCc1ccc(Oc2ccccc2)cc1 [Compound 36, 1-(isothiocyanatomethyl)-4-phenoxybenzene] | 12.2 | 8.24 | 4.19 | 3.55 | 7.17 | 3.95 | 6.17 | 5.06 | 3.93 | 3.99 | 3.93 | 3.3 | 4.47 | 9.12 | 6.34 | 6.16 | < 12.5 | 187 | 37.6 | 4.84 | further fold increase in potency from multiple phenyl rings [20]: ~2 fold
5 | S=C=NCCc1ccccc1 [Compound 38, 1-(2-isothiocyanatoethyl)benzene] | 43.1 | 10.9 | 12.7 | 10.3 | 46.2 | 11.1 | 8.66 | 7.2 | 16.7 | 13.5 | 10.5 | 12.1 | 12.1 | 13.7 | 23.7 | 13.1 | < 12.5 | 17.7 | 33.2 | 11.5 | –
6 | S=C=NCC(c1ccccc1)c1ccccc1 [Compound 40, 2-isothiocyanato-1,1-diphenylethane] | 3.51 | 3.65 | 3.26 | 1.22 | 3.58 | 4.3 | 3.49 | 3.33 | 5.26 | 4.52 | 3.95 | 4.47 | 9.91 | 5.64 | 3.62 | 3.68 | 5.81 | 3.62 | 22.9 | 4.11 | further fold increase in potency from multiple phenyl rings [20]: ~2 fold
